Laboratory results from paper PMC13447983, “Identifying and characterising a plant GH1 β‐glucosidase that exhibits hydrolytic activity on N‐linked glucopyranoside” (FEBS Open Bio, 2026).

Target: T1, ZmGlu1 (Zea mays, UniProt P49235)
T1 construct: gene GLU1; E. coli BL21 Star (DE3)
Assay: HPLC of released methyl anthranilate at […] nm, Michaelis-Menten fit
Format: biochemical
Conditions: 50 mM phosphate pH 6.0, 35 °C, 3 μM enzyme, 1.17-20 mM substrate

T1 sequence (P49235 55-566): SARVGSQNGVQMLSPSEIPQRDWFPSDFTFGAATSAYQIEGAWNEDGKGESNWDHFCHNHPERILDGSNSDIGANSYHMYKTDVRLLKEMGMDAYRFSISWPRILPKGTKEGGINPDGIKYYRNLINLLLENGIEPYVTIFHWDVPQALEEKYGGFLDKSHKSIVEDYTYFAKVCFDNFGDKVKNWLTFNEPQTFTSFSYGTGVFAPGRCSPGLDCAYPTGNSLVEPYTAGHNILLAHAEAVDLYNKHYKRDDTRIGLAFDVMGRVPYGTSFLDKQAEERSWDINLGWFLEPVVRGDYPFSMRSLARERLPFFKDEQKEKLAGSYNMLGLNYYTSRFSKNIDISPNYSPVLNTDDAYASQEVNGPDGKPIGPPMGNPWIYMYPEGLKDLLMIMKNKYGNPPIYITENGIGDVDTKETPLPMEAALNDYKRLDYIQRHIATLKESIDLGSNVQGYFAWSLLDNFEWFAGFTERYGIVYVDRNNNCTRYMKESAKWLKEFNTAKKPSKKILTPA

Km: 13.7 ± 1.22 mM
SMILES: COC(=O)c1ccccc1N[C@@H]1O[C@H](CO)[C@@H](O)[C@H](O)[C@H]1O [MANT‐N‐glucose, methyl anthranilate‐N‐β‐D‐glucopyranoside]
